The values that follow come from BindingDB's records for doi:10.1021/jm801126a (Cornell University, 2009).

This test has as its target T1, S-adenosylmethionine decarboxylase proenzyme (Homo sapiens, UniProt P17707).
T1 sequence (P17707 whole entry): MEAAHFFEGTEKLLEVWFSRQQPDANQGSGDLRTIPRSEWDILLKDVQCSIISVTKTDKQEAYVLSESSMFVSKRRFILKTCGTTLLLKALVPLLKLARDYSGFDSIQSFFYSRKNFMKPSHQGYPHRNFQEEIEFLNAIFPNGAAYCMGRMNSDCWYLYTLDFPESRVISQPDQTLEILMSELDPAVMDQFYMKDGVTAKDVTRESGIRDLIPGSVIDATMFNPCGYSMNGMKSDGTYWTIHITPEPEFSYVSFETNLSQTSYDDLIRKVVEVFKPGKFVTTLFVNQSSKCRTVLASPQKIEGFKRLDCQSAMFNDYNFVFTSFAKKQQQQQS
Description: AdoMetDC Inhibition Assay. How it is done:
The C-terminal his-tagged AdoMetDC was assayed by measuring the release of 14CO2 from S-adenosyl-L-[carboxy-14C]methionine (Amersham Pharmacia Biotech). For determination of the abilities of compounds to inhibit AdoMetDC, the enzyme activity was determined in the presence of no inhibitor and at least five concentrations of each potential inhibitor. The IC50 values were determined from curve fitting to plots of the inhibitor concentration versus the % inhibition of AdoMetDC.

As to `C[S+](C)C[C@H]1O[C@@H](n2cnc3c(N)ncnc32)[C@H](O)[C@@H]1O` [{[(2S,3S,4R,5R)-5-(6-amino-9H-purin-9-yl)-3,4-dihydroxyoxolan-2-yl]methyl}dimethylsulfanium chloride], inhibition was half-maximal at 15 µM (IC50).
